Experimental data taken from patent US10155753B2, “4-substituted-2-(5-substituted-1H-indol-2-yl)phenol derivatives, methods for preparing the phenol derivatives and pharmaceutical compositions for inhibiting cell proliferation and migration including the phenol derivatives” (KOREA UNIVERSITY RESEARCH AND BUSINESS FOUNDATION, priority 2015, dated 2018).

Columns and labels:
[1] = test system: YANK-expressed cells (STK32C/MCF7 cell); experiment: Inhibition of cell proliferation (MCF7, STK32C/MCF7 cells, 96-well, read at 450 nm); type: cell-based; details: 24 h after addition of compound; FIGS. 3 to 6
Experimental: MCF7, STK32C/MCF7 cell (1×10^4/well) culture was plated in each well of a 96-well plate until it reached a final volume of 100 μl. After 24 h, the compounds at given concentrations were added. 24 h after the addition, 10 μl of an analytical reagent was plated in each well without bubbling. The reaction was allowed to proceed under basic culture conditions for 30 min to 1 h and the inhibitions of cell proliferation were measured at 450 nm.
FIGS. 3 to 6 show concentration-dependent inhibitions of proliferation of the YANK-expressed cells by treatment with the phenol derivatives of Formulae 7, 9, 13, and 32 (corresponding to Compound 34 in FIG. 2), respectively.

YANK3 = target: T1, YANK3 (Homo sapiens, UniProt Q86UX6); experiment: In vitro kinase assay: inhibition of YANK3 phosphorylation (IP kinase, [γ-32P]ATP, autoradiography); type: biochemical; set-up: dose or concentration left out as unconfirmed; details: MCF7 cells treated with each compound at 37° C. for 1 h; anti-HA IP, kinase reaction 30° C. 30 min
T1 construct: expressed in transfected cells; host or cells: MCF7 cells, Lipofectamine transfection, anti-HA immunoprecipitation
T1 sequence (Q86UX6 whole entry): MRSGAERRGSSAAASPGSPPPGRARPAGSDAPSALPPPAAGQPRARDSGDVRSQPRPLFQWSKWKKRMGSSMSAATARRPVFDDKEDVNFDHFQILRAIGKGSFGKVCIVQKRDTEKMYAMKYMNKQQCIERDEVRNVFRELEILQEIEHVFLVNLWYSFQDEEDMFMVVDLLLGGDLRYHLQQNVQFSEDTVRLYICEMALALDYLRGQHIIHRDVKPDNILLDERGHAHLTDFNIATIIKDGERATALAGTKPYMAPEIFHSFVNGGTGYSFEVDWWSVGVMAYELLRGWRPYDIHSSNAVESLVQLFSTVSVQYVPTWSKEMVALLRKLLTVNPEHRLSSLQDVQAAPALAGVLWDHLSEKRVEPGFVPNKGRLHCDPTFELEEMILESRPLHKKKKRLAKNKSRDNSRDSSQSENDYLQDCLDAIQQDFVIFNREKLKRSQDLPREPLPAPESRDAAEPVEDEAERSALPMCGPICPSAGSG
Experimental: Transduction was performed to overexpress YANK3-HA and YB1-HA genes in cells. Lipofectamine reagent (Invitrogen) was used for gene introgression. When cells were grown to a confluency of 60% in a culture dish, human YANK3-HA and YB1-HA genes were introduced into MCF7 cells. After 48 h, the gene-transfected cells were used for experiments. All cultured cells were harvested, lysed in a lysis buffer (1×RIPA buffer 1 mL, 1 mM PMSF, 1 mg/mL aprotinin, 1 mg/mL leupeptin, 2 mM DTT) for 30 min, and centrifuged at 15,000 rpm and 4° C. for 30 min. The supernatant was collected and its total protein content was quantified by the Bradford method. After YB1-HA gene introgression, the MCF7 cells were treated with each compound […] at 37° C. for 1 h. 1 μg of anti-HA antibody was cultured with […] of protein at 4° C. for 15 h, 20 μL of protein A/G-Sepharose was added thereto, followed by culture for another 2 h. The culture was centrifuged to precipitate the protein A/G-Sepharose, washed with IP kinase buffer (50 mM HEPES, pH 7.5, 10 mM MgCl2, 1 mM dithiothreitol, 2.5 mM EGTA, 1 mM NaF, 0.1 mM Na3VO4), and sufficiently mixed with 20 μL of IP kinase buffer. The kinase reaction was initiated by the addition of […] of [γ-^32P]ATP to 40 μL of IP kinase buffer. The reaction was allowed to proceed at 30° C. for 30 min. After addition of 5 μL of 2×SDS sample buffer, the reaction was quenched by boiling for 5 min, which was confirmed by SDS-PAGE electrophoresis and autoradiography.

| SMILES | concentration-dependent inhibition of proliferation of YANK-expressed cells [1] | Inhibition, % (inhibitions (%) of YANK3 phosphorylation) (YANK3) |
| --- | --- | --- |
| N=C(N)c1ccc2[nH]c(-c3cc(-c4ccc(Cl)cc4)ccc3O)cc2c1 [Compound 32, 2-(4′-Chloro-4-hydroxybiphenyl-3-yl)-1H-indole-5-carboximidamide] | inhibited the proliferation of the YANK-expressed cells with high efficacy with increasing concentration | 65% |
| N=C(N)c1ccc2[nH]c(-c3cc(-c4cccs4)ccc3O)cc2c1 [Compound 33, 2-(2-Hydroxy-5-(thiophen-2-yl)phenyl)-1H-indole-5-carboximidamide] |  | 30% |
| Oc1ccc(Br)cc1-c1cc2cc(F)ccc2[nH]1 [Formula 7, 4-Bromo-2-(5-fluoro-1H-indol-2-yl)phenol] | inhibited the proliferation of the YANK-expressed cells with high efficacy with increasing concentration | 74% |
| N#Cc1ccc2[nH]c(-c3cc(Br)ccc3O)cc2c1 [Formula 9, 2-(5-Bromo-2-hydroxyphenyl)-1H-indole-5-carbonitrile] | inhibited the proliferation of the YANK-expressed cells with high efficacy with increasing concentration | 144% |
| COc1ccc(-c2ccc(O)c(-c3cc4ccccc4[nH]3)c2)cc1 [Formula 11, 3-(1H-Indol-2-yl)-4′-methoxybiphenyl-4-ol] |  | 163% |
| Oc1ccc(-c2ccc(Cl)cc2)cc1-c1cc2cc(F)ccc2[nH]1 [Formula 13] | inhibited the proliferation of the YANK-expressed cells with high efficacy with increasing concentration | 93% |
| Oc1ccc(-c2ccc(Cl)cc2)cc1-c1cc2cc(Cl)ccc2[nH]1 [Formula 16, 4′-Chloro-3-(5-chloro-1H-indol-2-yl)biphenyl-4-ol] |  | 125% |
